Measurements published in patent publication US10226455B2 (priority 2014, dated 2019).
Where two headings read alike, the source gives them in different places.

Experiments:
[1] = tested on: P. Falciparum; test: In vitro inhibition of P. falciparum variants, DAPI fluorescence imaging assay in erythrocyte cultures; assay type: cell-based
Source text: Sensitivity of the P. Falciparum variants to (i.e. inhibition of the parasites by) RTI-79chloroquine, or rifamycin was quantitated via assay as previously described. Duffy, S. and V. M. Avery, Development and optimization of a novel 384-well anti-malarial imaging assay validated for high-throughput screening. Am J Trop Med Hyg, 2012. 86(1): p. 84-92. Inhibition of P. Falciparum with various concentrations of the inhibitors was quantified by measuring DAPI fluorescence of parasite DNA in erythrocyte cultures.
Decreased DAPI staining quantified as relative light units (“RLU”), is observed with parasite inhibition in the assays.

[2] = tested on: P-gp; conditions: previously demonstrated; cited from earlier work
[3] = tested on: multidrug resistant Haemonchus contortus isolate UGA2004 L3 stage larvae; conditions: for inhibition of larval motility compared with verapamil: with IVR, 10 or 20 uM RTI-79, 20 uM RTI-176, 10 uM verapamil
Method: Each well contained a 300 uL solution containing approximately 75 L3 stage larvae, IVR, and pgp inhibitor or control. IVR was provided in serially diluted concentrations of 50, 25, 12.5, 6.25, 3.125, 1.56, 0.78 or 0.39 uM, to permit evaluation of the dose response to IVR in the presence of the pgp inhibitors. Inhibition of larval motility was determined by failure of the incubated larvea to move when stimulated by light exposure after incubation.

[4] = Time to maximal plasma concentration / tissue absorption after administration
Source text: In certain embodiments, the rifamycin, rifamycin derivative, rifampicin, rifampicin derivative, or pharmaceutically acceptable salt, hydrate, or prodrug thereof, or combination thereof, can be administered in a method that matches the pharmokinetics of the composition to that of the antiparasitic drug also administered to the recipient.

[5] = tested on: UGA2004 H. contortus isolate eggs; test: Larval development assay, sensitization to thiabendazole; set-up: species or system Haemonchus contortus
Method: TBZ was provided in a range of concentrations to permit evaluation of the dose response to TBZ in the presence of the pgp inhibitors. After incubation of the eggs for seven days, the number of stage 3 (“L3”) larvae that developed with each treatment was counted.

[6] = cited from earlier work
[7] = tested on: P. Falciparum; test: Chloroquine sensitization in chloroquine-resistant P. Falciparum (survival of variants); assay type: cell-based
Source text: Quinine and quinine derivatives including chloroquine inhibit the Plasmodium parasites, including P. Falciparum, by accumulating in food vacuoles and causing accumulation of cytotoxic heme, thereby poisoning the parasite.

[8] = tested on: P. Falciparum; conditions: read-out: previously-reported IC50 of chloroquine, cited from earlier work

For “4-deoxy-3,4[2-spiro-[1-(isobutyloxycarbonyl)-piperidin-4-yl]]-(1H)-imidazo-(2,5-dihydro)rifamycin S [RTI-79]”, the “inhibition of strains (DAPI staining, RLU)” value ([1]; all strains, FIGS. 1A-1C) is listed as “Dose-dependent inhibition of all strains”, the IC50 ([1]; all variants (3D7, Dd2, K1; chloroquine-sensitive and -resistant), read-out: observed IC50) is listed as roughly 625 nM and the “drug efflux from cells” value [2] is listed as “prevent drug efflux from cells”. The “inhibition of larval motility compared with verapamil” value [3] was “more potent inhibition of larval motility” and the “time to maximal plasma concentration” value [4] was no more than 3 h.

In the case of “11-deoxy-11-amino-4-deoxy-3,4[2-spiro-[1-(isobutyloxycarbonyl)-piperidin-4-yl]]-(1H)-imidazo-(2,5-dihydro)rifamycin S [RTI-176]”, the “shift of TBZ dose response curve” value ([5]; relative to both verapamil and the 1% DMSO control, FIG. 3B) is reported as “shifted the TBZ dose response curve to the left”, the “shift of the IC50 of TBZ” value ([5]; seven days incubation, relative to control and verapamil) is reported as 3.79 fold and the “shift of IVR dose response curve” value ([3]; relative to the 1% DMSO control, FIG. 3A) is reported as “shifted the IVR dose response curve to the left”. For the same compound, the “inhibition of larval motility compared with verapamil” value [3] was “more potent inhibition of larval motility”.

For `CO[C@H]1/C=C/O[C@@]2(C)Oc3c(C)c(O)c4c(c3C2=O)C2=NC3(CCN(CC(C)C)CC3)NC2=C(NC(=O)/C(C)=C\C=C\[C@H](C)[C@H](O)[C@@H](C)[C@@H](O)[C@@H](C)[C@H](OC(C)=O)[C@@H]1C)C4=O` [rifabutin], the “initial half-life of plasma elimination” value ([6]; biphasic elimination) is given as “approximately 4 hours”, the “mean (±SD) peak plasma concentration (Cmax)” value ([6]; in vivo, po, 300 mg) is given as 375 (±267) ng/mL and the “peak plasma concentration (Cmax), range” value ([6]; in vivo, po, 300 mg) is given as 141 to 1033 ng/mL.

For `CCN(CC)CCCC(C)Nc1ccnc2cc(Cl)ccc12` (centres unmarked) [chloroquine], the parasite survival ([7]; 3D7 variant, chloroquine at or greater than IC50) is listed as “death of the parasite”, the parasite survival ([7]; chloroquine-resistant variants, chloroquine alone at or below the 3D7 IC50) is listed as “survive” and the IC50 ([8]; chloroquine-resistant Dd2 variant) is listed as 100 nM. For the same compound, the IC50 ([8]; chloroquine-resistant K1 variant) was 255 nM and the IC50 ([8]; chloroquine-sensitive 3D7 variant) was roughly 10 nM.
